Article PMC9784969, “SARS-CoV-2 Inhibitors Identified by Phenotypic Analysis of a Collection of Viral RNA-Binding Molecules” (Pharmaceuticals, 2022)
Like-named read-outs stand apart in the source and are kept apart here.

Experiments:
[1] = test system: SCoV2 RNA elements; assay: ligand-based 1H NMR (1D, CPMG, wLOGSY), six RNA elements compared; type: binding, SARS-CoV-2; conditions: CSP, LB, CPMG and wLOGSY perturbations; 300 µM compound
Excerpt: We first used ligand-based ^1H NMR experiments to analyze the interaction of the selected compounds with each of the six RNA elements specified above, including one-dimensional, Carr–Purcell–Meiboom–Gill (CPMG) and waterLOGSY (wLOGSY) experiments. These assays detect changes in the ^1H signals of the ligand upon RNA association (Figure 4A), and have been successfully used to evaluate small-molecule binding to RNA motifs, including elements of the SCoV2 genome.
Each ligand (at a concentration of 300 μM) was mixed with a smaller quantity of RNA in an aqueous solution containing 25 mM potassium phosphate (pH 6.2), 150 mM KCl, 3 mM MgCl2, and 10% D2O. RNA–ligand molar ratios of 1:50 and 1:100 were explored (with 6 and 3 μM RNA, respectively). […] The water signal was suppressed from one-dimensional experiments with a watergate sequence. The CPMG experiments were acquired with 100, 200, 300, and 400 ms relaxation delays before acquisition, and water suppression was achieved by presaturation. wLOGSY experiments employed a selective Gaussian 180° pulse at the water frequency and an NOE mixing time of 1.5 s and suppressed the water signal by excitation sculpting. All spectra were acquired in the absence and presence of RNA.
All ligand signals were individually analyzed. For clomiphene citrate, the signals corresponding to cis and trans forms were identified by comparing the spectrum of clomiphene citrate with those of the individual stereoisomers. In CPMG experiments, the binding of the compounds to the different RNA sequences was quantified as 100 minus the percentage of ligand signal area in the +RNA CPMG spectrum relative to the corresponding signal area in the -RNA CPMG spectrum. In wLOGSY experiments, binding was quantified with the LOGSY factor, or % of ligand signal in the difference spectrum between the +RNA and –RNA wLOGSY spectra, relative to the corresponding signal in the one-dimensional -RNA reference spectrum. In one-dimensional experiments, line broadening (LB) was quantified as explained for CPMG spectra.

[2] = test system: 3_SL1+2 RNA; type: binding
[3] = test system: 3_S2m RNA; assay: ligand-based 1H NMR (1D, CPMG, wLOGSY); type: binding, SARS-CoV-2
[4] = test system: 3_S2m RNA; assay: RNA-based 1H NMR (TOCSY) titration; type: binding, SARS-CoV-2; conditions: RNA:ligand up to 1:4
Experimental: The RNA samples were previously diafiltrated into an aqueous solution containing 25 mM potassium phosphate (pH 6.2), 50 mM KCl and 0.1 mM EDTA, and the titration experiments were carried out at 27 °C using 50 μM RNA samples in 100% D2O. The 3_S2m titrations were duplicated at 25 °C using 120 μM RNA samples and additionally acquiring NOESY spectra (250 ms mixing time) at 1:0 and 1:4 ratios. For this system, the chemical shift perturbation analyses included 63 H1’, H2’, and aromatic 3_S2m resonances. The isolated 3_S2m hairpin was studied at two different temperatures (25 and 35 °C) using 120 and 500 μM RNA samples and similar TOCSY and NOESY (120 and 250 ms mixing times) experiments. […] The relaxation delay for NOESY and TOCSY acquisition was 2 and 1.5 s, respectively.

[5] = test system: 5_SL2+3 RNA; assay: RNA-based 1H NMR (TOCSY) titration; type: binding, SARS-CoV-2; conditions: RNA:ligand up to 1:4
[6] = test system: Vero E6 cells; conditions: read-out: SARS-CoV-2 CC50, uninfected, MTT
[7] = test system: HIV-1; conditions: ref 3 (Table S1 list: Simba-Lahuasi et al., Unpublished results); cited from earlier work
[8] = test system: subdomain IIB of the rev recognition element (RRE) of the HIV-1 genomic RNA; conditions: ref 3 (Table S1 list: Simba-Lahuasi et al., Unpublished results); cited from earlier work
[9] = in vitro; conditions: human, uninfected 293T-ACE2 cells
[10] = test system: subdomain IIa of the internal ribosome entry site (IRES) RNA of HCV; design: method as in earlier work; conditions: ref 6 (Table S1 list: Martín-Villamil et al. 2022); cited from earlier work
[11] = average of aliphatic protons, RNA:ligand 1:100 (clomiphene) or 1:50 (trim, qz2)
[12] = average of aromatic protons, RNA:ligand 1:100 (clomiphene) or 1:50 (trim, qz2)

With `NCCCc1cn(C(c2ccccc2)(c2ccccc2)c2ccccc2)cn1` [trim] the RNA binding preference [1] was “bound with enhanced affinity to the 5_SL2+3 and 3_S2m molecules”, the CPMG variation [2, 11] was 18.3% and the LB [2, 11] was 14.0%. It also gave an LOGSY factor [2, 11] of 33.1%, a CPMG variation [2, 12] of 25.0% and an LB [2, 12] of 10.2%. The LOGSY factor [2, 12] was 87.9%, the CPMG variation ([2]; trim peak A, RNA:ligand 1:50) was 18.5% and the LB ([2]; trim peak A, RNA:ligand 1:50) was 11.8%. For the same compound, the LOGSY factor ([2]; trim peak A, RNA:ligand 1:50) was 32.1%, the CPMG variation ([2]; trim peak B, RNA:ligand 1:50) was 23.8% and the LB ([2]; trim peak B, RNA:ligand 1:50) was 15.1%. It also gave an LOGSY factor ([2]; trim peak B, RNA:ligand 1:50) of 34.2%, a CPMG variation ([2]; trim peak C, RNA:ligand 1:50) of 23.6% and an LB ([2]; trim peak C, RNA:ligand 1:50) of 7.46%. It also gave an LOGSY factor ([2]; trim peak C, RNA:ligand 1:50) of 80.8%, a CPMG variation ([2]; trim peak D, RNA:ligand 1:50) of 25.2% and an LB ([2]; trim peak D, RNA:ligand 1:50) of 9.70%. The LOGSY factor ([2]; trim peak D, RNA:ligand 1:50) was 92.6%, the CPMG variation ([2]; trim peak E, RNA:ligand 1:50) was 26.4% and the LB ([2]; trim peak E, RNA:ligand 1:50) was 14.1%. The LOGSY factor ([2]; trim peak E, RNA:ligand 1:50) was 90.5%, the CPMG variation [3, 11] was 15.7% and the LB [3, 11] was 9.33%. It also gave an LOGSY factor [3, 11] of 39.4%, a CPMG variation [3, 12] of 24.0% and an LB [3, 12] of 8.82%. It also gave an LOGSY factor [3, 12] of 54.4%, a CPMG variation ([3]; trim peak A, RNA:ligand 1:50) of 15.8% and an LB ([3]; trim peak A, RNA:ligand 1:50) of 5.70%. It also gave an LOGSY factor ([3]; trim peak A, RNA:ligand 1:50) of 45.5%, a CPMG variation ([3]; trim peak B, RNA:ligand 1:50) of 22.1% and an LB ([3]; trim peak B, RNA:ligand 1:50) of 11.1%. For the same compound, the LOGSY factor ([3]; trim peak B, RNA:ligand 1:50) was 33.3%, the CPMG variation ([3]; trim peak C, RNA:ligand 1:50) was 22.2% and the LB ([3]; trim peak C, RNA:ligand 1:50) was 11.7%. The LOGSY factor ([3]; trim peak C, RNA:ligand 1:50) was 54.5%, the CPMG variation ([3]; trim peak D, RNA:ligand 1:50) was 24.2% and the LB ([3]; trim peak D, RNA:ligand 1:50) was 4.64%. For the same compound, the LOGSY factor ([3]; trim peak D, RNA:ligand 1:50) was 70.5%, the CPMG variation ([3]; trim peak E, RNA:ligand 1:50) was 26.4% and the LB ([3]; trim peak E, RNA:ligand 1:50) was 14.3%. For the same compound, the LOGSY factor ([3]; trim peak E, RNA:ligand 1:50) was 38.2%, the “RNA chemical shift perturbations” value [4] was “strongest RNA chemical shift perturbations” and the TOCSY perturbations [5] was “larger variations than clomiphene or qz2”. The CC50 [6] was > 89.8 µM, the “Previous target virus activity” value [7] was “yes” and the “Previous target RNA binding” value [8] was “yes”. For the same compound, the CC50 at 2 days [9] was 23.5 µM.

In the case of `CC(C)CCN1CCC(CNc2nc3ccccc3c(=O)[nH]2)CC1` [qz2], the RNA binding preference [1] was “bound to the ORF7b element only”, the LB [2, 11] was -2.14% and the LOGSY factor [2, 11] was 4.45%. The CPMG variation [2, 12] was 10.7%, the LB [2, 12] was 13.1% and the LOGSY factor [2, 12] was 11.5%. It also gave a CPMG variation ([2]; qz2 peak A, RNA:ligand 1:50) of -13.7%, an LB ([2]; qz2 peak A, RNA:ligand 1:50) of -2.06% and an LOGSY factor ([2]; qz2 peak A, RNA:ligand 1:50) of 2.25%. The CPMG variation ([2]; qz2 peak C/D, RNA:ligand 1:50) was -16.2%, the LB ([2]; qz2 peak C/D, RNA:ligand 1:50) was -4.34% and the LOGSY factor ([2]; qz2 peak C/D, RNA:ligand 1:50) was 7.61%. For the same compound, the CPMG variation ([2]; qz2 peak E/B, RNA:ligand 1:50) was -19.5%, the LB ([2]; qz2 peak E/B, RNA:ligand 1:50) was 7.16% and the LOGSY factor ([2]; qz2 peak E/B, RNA:ligand 1:50) was 3.76%. It also gave a CPMG variation ([2]; qz2 peak F, RNA:ligand 1:50) of -4.16%, an LB ([2]; qz2 peak F, RNA:ligand 1:50) of -9.61% and an LOGSY factor ([2]; qz2 peak F, RNA:ligand 1:50) of 3.95%. It also gave a CPMG variation ([2]; qz2 peak G, RNA:ligand 1:50) of -11.4%, an LB ([2]; qz2 peak G, RNA:ligand 1:50) of -3.71% and an LOGSY factor ([2]; qz2 peak G, RNA:ligand 1:50) of 4.70%. For the same compound, the CPMG variation ([2]; qz2 peak I, RNA:ligand 1:50) was 11.7%, the LB ([2]; qz2 peak I, RNA:ligand 1:50) was 11.8% and the LOGSY factor ([2]; qz2 peak I, RNA:ligand 1:50) was 15.1%. It also gave a CPMG variation ([2]; qz2 peak J, RNA:ligand 1:50) of 11.1%, an LB ([2]; qz2 peak J, RNA:ligand 1:50) of 21.8% and an LOGSY factor ([2]; qz2 peak J, RNA:ligand 1:50) of 16.0%. For the same compound, the CPMG variation ([2]; qz2 peak K, RNA:ligand 1:50) was 8.91%, the LB ([2]; qz2 peak K, RNA:ligand 1:50) was 5.71% and the LOGSY factor ([2]; qz2 peak K, RNA:ligand 1:50) was 3.38%. The CPMG variation [3, 11] was -0.71%, the LB [3, 11] was 1.30% and the LOGSY factor [3, 11] was 3.15%. The CPMG variation [3, 12] was 10.3%, the LB [3, 12] was 6.50% and the LOGSY factor [3, 12] was 11.1%. For the same compound, the CPMG variation ([3]; qz2 peak A, RNA:ligand 1:50) was 6.71%, the LB ([3]; qz2 peak A, RNA:ligand 1:50) was 4.87% and the LOGSY factor ([3]; qz2 peak A, RNA:ligand 1:50) was 1.60%. The CPMG variation ([3]; qz2 peak C/D, RNA:ligand 1:50) was -1.93%, the LB ([3]; qz2 peak C/D, RNA:ligand 1:50) was 2.61% and the LOGSY factor ([3]; qz2 peak C/D, RNA:ligand 1:50) was 3.32%. It also gave a CPMG variation ([3]; qz2 peak E/B, RNA:ligand 1:50) of -10.6%, an LB ([3]; qz2 peak E/B, RNA:ligand 1:50) of 11.4% and an LOGSY factor ([3]; qz2 peak E/B, RNA:ligand 1:50) of 6.11%. It also gave a CPMG variation ([3]; qz2 peak F, RNA:ligand 1:50) of 6.38%, an LB ([3]; qz2 peak F, RNA:ligand 1:50) of -12.7% and an LOGSY factor ([3]; qz2 peak F, RNA:ligand 1:50) of 2.81%. It also gave a CPMG variation ([3]; qz2 peak G, RNA:ligand 1:50) of -1.76%, an LB ([3]; qz2 peak G, RNA:ligand 1:50) of 4.32% and an LOGSY factor ([3]; qz2 peak G, RNA:ligand 1:50) of 1.92%. It also gave a CPMG variation ([3]; qz2 peak I, RNA:ligand 1:50) of 10.3%, an LB ([3]; qz2 peak I, RNA:ligand 1:50) of 11.5% and an LOGSY factor ([3]; qz2 peak I, RNA:ligand 1:50) of 5.19%. The CPMG variation ([3]; qz2 peak J, RNA:ligand 1:50) was 9.16%, the LB ([3]; qz2 peak J, RNA:ligand 1:50) was 11.3% and the LOGSY factor ([3]; qz2 peak J, RNA:ligand 1:50) was 9.42%. For the same compound, the CPMG variation ([3]; qz2 peak K, RNA:ligand 1:50) was 11.6%, the LB ([3]; qz2 peak K, RNA:ligand 1:50) was -3.23% and the LOGSY factor ([3]; qz2 peak K, RNA:ligand 1:50) was 18.7%. For the same compound, the “RNA chemical shift perturbations” value [4] was “smaller perturbations”, the “Previous target RNA binding” value [10] was “yes” and the CC50 at 2 days [9] was > 6.6 µM.
